The values that follow come from publication PMC11678824 (2024).

Assay [1] has as its system KRAS (DNA, G4) AGGGCGGTGTGGGAATAGGGAA
Put plainly: fluorescent intercalator displacement (FID). The following applies: 100 mM K+ (KCl) plus potassium phosphate; 20 mM potassium phosphate, pH 6.8; thiazole orange 3.5 µM displaced; DNA 1 µM.

The subject of assay [2] is ds26 (DNA, duplex) CAATCGGATCGAATTCGATCCGATTG
Kind of assay: fluorescent intercalator displacement (FID). The following applies: 100 mM K+ (KCl) plus potassium phosphate; 20 mM potassium phosphate, pH 6.8; thiazole orange 3.5 µM displaced; DNA 1 µM.

Assay [3] has the same test system. Kind of assay: fluorescence titration (ligand emission). The following applies: 100 mM K+ (KCl) plus potassium phosphate, 20 mM potassium phosphate, pH 6.8, ligand 2 µM, apparent.
Assay [4] has as its system G4 Tel (DNA, G4) AGGGTTAGGGTTAGGGTTAGGG
Put plainly: fluorescent intercalator displacement (FID). The following applies: 100 mM K+ (KCl) plus potassium phosphate; 20 mM potassium phosphate, pH 6.8; thiazole orange 3.5 µM displaced; DNA 1 µM.

In assay [5] the test system is MYC (DNA, G4) TGAGGGTGGGTAGGGTGGGTAA
Put plainly: fluorescence titration (ligand emission). The following applies: 100 mM K+ (KCl) plus potassium phosphate; 20 mM potassium phosphate, pH 6.8; ligand 2 µM; apparent; Hill n = 3.85.

The test system is the same in assay [6]. Kind of assay: fluorescent intercalator displacement (FID). The following applies: 100 mM K+ (KCl) plus potassium phosphate; 20 mM potassium phosphate, pH 6.8; thiazole orange 3.5 µM displaced; DNA 1 µM.
In assay [7] the test system is G4 Tel (DNA, G4) AGGGTTAGGGTTAGGGTTAGGG
Put plainly: fluorescence titration (ligand emission). The following applies: 100 mM K+ (KCl) plus potassium phosphate, 20 mM potassium phosphate, pH 6.8, ligand 2 µM, apparent.

The test system of assay [8] is KRAS (DNA, G4) AGGGCGGTGTGGGAATAGGGAA
Put plainly: fluorescence titration (ligand emission). As to conditions: 100 mM K+ (KCl) plus potassium phosphate; 20 mM potassium phosphate, pH 6.8; ligand 2 µM; apparent; Hill n = 1.59.

Assay [9] relates to MYC (DNA, G4) TGAGGGTGGGTAGGGTGGGTAA
Put plainly: UV-Vis titration (Soret red shift, hypochromism). As to conditions: 100 mM K+ (KCl) plus potassium phosphate; 20 mM potassium phosphate, pH 6.8; ligand 2 µM; up to 2.5 equiv. DNA.

In assay [10] the test system is ds26 (DNA, duplex) CAATCGGATCGAATTCGATCCGATTG
Put plainly: UV-Vis titration (Soret red shift, hypochromism). As to conditions: 100 mM K+ (KCl) plus potassium phosphate; 20 mM potassium phosphate, pH 6.8; ligand 2 µM; up to 2.5 equiv. DNA.

Assay [11] relates to KRAS (DNA, G4) AGGGCGGTGTGGGAATAGGGAA
Put plainly: UV-Vis titration (Soret red shift, hypochromism). As to conditions: 100 mM K+ (KCl) plus potassium phosphate; 20 mM potassium phosphate, pH 6.8; ligand 2 µM; up to 2.5 equiv. DNA.

Assay [12] deals with G4 Tel (DNA, G4) AGGGTTAGGGTTAGGGTTAGGG
Kind of assay: UV-Vis titration (Soret red shift, hypochromism). The following applies: 100 mM K+ (KCl) plus potassium phosphate; 20 mM potassium phosphate, pH 6.8; ligand 2 µM; up to 2.5 equiv. DNA.

For `C[n+]1ccc(-c2c3nc(c(-c4cc[n+](C)cc4)c4ccc([n-]4)c(-c4cc[n+](C)cc4)c4nc(c(-c5cc[n+](C)cc5)c5ccc2[n-]5)C=C4)C=C3)cc1.[Zn+2]`, the DC50 turned out to be 0.37 ± 0.01 µM in assay [1], 0.65 ± 0.04 µM in [2], 0.34 ± 0.02 µM in [4] and 0.20 ± 0.02 µM in assay [6]. For the same compound, the KD in assay [3] (Hill n = 0.67) is on record as 2.69 ± 0.02 µM; in assay [5], 1.32 ± 0.13 µM; in [7] (Hill n = 1.35), 1.30 ± 0.02 µM; in assay [8], 2.72 ± 0.42 µM.

Turning to `C[n+]1ccc(-c2c3nc(c(-c4cc[n+](C)cc4)c4ccc([n-]4)c(-c4cc[n+](C)cc4)c4nc(c(-c5cc[n+](C)cc5)c5ccc2[n-]5)C=C4)C=C3)cc1.[Ag+2]`, the DC50 in [1] is given as 0.28 ± 0.01 µM; in assay [2], 2.00 ± 0.37 µM; in assay [4], 1.12 ± 0.27 µM; in [6], 0.18 ± 0.03 µM. Also, the figures for the KD in assay [3] (Hill n = 0.49) and in assay [7] (Hill n = 1.0) were 0.01 ± 0.007 µM and 0.63 ± 0.29 µM, respectively.

For `C[n+]1ccc(-c2c3nc(c(-c4cc[n+](C)cc4)c4ccc([nH]4)c(-c4cc[n+](C)cc4)c4nc(c(-c5cc[n+](C)cc5)c5ccc2[nH]5)C=C4)C=C3)cc1`, the binding entry in assay [9], in [10], in assay [11] and in assay [12] was “yes” throughout.
